Literature values, collected in patent publication US20110268797A1, “MULTICOATED ALISKIREN FORMULATIONS” (Sanovel IIac Sanayi Ve Ticaret Anonim Sirketi, priority 2010, published 2011).
Like-named read-outs stand apart in the source and are kept apart here.

Measured: solubility

COCCCOc1cc(C[C@@H](C[C@H](N)[C@@H](O)C[C@H](C(=O)NCC(C)(C)C(N)=O)C(C)C)C(C)C)ccc1OC [Aliskiren hemifumarate]
freely soluble: in n-octanol | in phosphate buffer | in water
